Results on 2 compounds are retold here after publication PMC5449093, “Selective inhibitors of trypanosomal uridylyl transferase RET1 establish druggability of RNA post-transcriptional modifications” (RNA Biology, 2016).

Data set [1] addresses T1, RET1 (Trypanosoma brucei brucei, UniProt Q8WQX5, A749G/DEL18-18/G858D/N24H/V111I/W59S).
T1 construct: Full-length RET1 protein (975aa) was expressed in E. coli as an N-terminal GST-tagged fusion protein; made in house; host or cells: E. coli BL21 (DE3)
Description: Gel based assay for RET1 uridylylation activity (Sybr Gold). In kind it is biochemical. The following applies: for Inhibition of RET1 uridylation of RNA, gel verification: inhibitor 50 µM, Fig. 3; for Gel Assay (qualitative activity in gel based assay): qualitative class: inactive, moderate or strong inhibitor, inhibitor 50 µM per method. On the procedure:
Individual reactions were made up in 0.2 ml PCR tubes (Peqlab 820264-A). RET1 enzyme (see SI text) was added (0.05 μl, 0.2 mg ml^−1), UTP (Thermo Scientific R0471 100 mM) was added to a final concentration of 50 μM. RNA substrate (see SI text) was added to a final concentration of 200 nM. Inhibitors were added as required (0.5 μl in DMSO) to a final concentration of 50 μM. When no inhibitor was included 5 % (vol/vol) DMSO was added as control. The volume was made up to 10 μl in buffer D (Tris pH 7.5 10 mM, KCl 200 mM, DTT 1 mM, EDTA 0.5 mM MgCl2 3.2 mM) and the reaction was incubated for 20 mins at 27°C, then inactivated at 65°C for 10 mins. RNA loading dye (10 μl, NEB B363A) was added and tubes were heated (5 mins at 70°C), 10 μl was loaded onto 15 % TBE urea pre-cast gel (Invitrogen EC68852) and run in 1 x TBE buffer for 1.5 h at 130 V. Gels were incubated with Sybr Gold nucleic acid stain (Life Technologies S11494) for 20 mins, then imaged on an ultraviolet trans-illuminator (BioDoc-It imaging system, UVP). Experiments were carried out in duplicate for each inhibitor.

In data set [2] the test system is PC12 cells. Further details: method as in PMID 9256496. The following applies: concentrations of 10 μM; cited from earlier work.
Data set [3] concerns the target T1, RET1. Description: Luciferase coupled PPi assay, 384 well format, RET1. Type of data set: biochemical. As to the method: Reactions were made up in Corning® 384 Well Low Flange White Flat Bottom Polystyrene TC-Treated Micro plates (Product #3570). RET1 enzyme was added at 0.1 μl (0.2 mgml^−1), UTP (Thermo Scientific R0471 100 mM) and RNA substrate final concentrations were equal to their Km: 50 μM and 20 nM respectively.[18] The volume was made up to 10 μl with buffer 6 (Tris pH 7.5 10 mM, KCl 10 mM, DTT 1 mM, MgCl2 3.2 mM) and the reaction was incubated 20 mins at 25°C, then heat inactivated at 65°C for 10 mins. Test compounds were added in 0.5 μl of DMSO stock solution. The positive control included of 0.5 μl of DMSO. After a 10 min cooling period, 5 μl of each of detection and conversion reagents from PPiLight™ Inorganic Pyrophosphate Assay Kit (Lonza, LT07-610) were added. Luminescence was read with a Pherastar Plus micro plate reader. IC50 determinations were carried out in triplicate using the luciferase assay protocol in a dilution series of 1 mM to 99 nM.

For data set [4], the system named is T. brucei. Description: Treating T. brucei cultures with compounds, cell density counts. In kind it is cell-based, Trypanosoma brucei. The following applies: blood and insect forms; concentrations close to RET1 IC50 values (70μM and 2μM); Fig. S4. As to the method: Wild type blood form strain of trypanosomes were cultured to densities of 5 × 10^5 cells ml^−1 at 37 °C in HMI-9 medium, 1 % pen/strep, 10 % FCS, Puromycin 0.1 ug ml^−1 , zeocin 1 µg ml^−1. Test compounds in DMSO were added at varying concentrations (DMSO final concentration 1 %). The trypanosomes where then split 1/10 dilution and sub-cultured every 24 h to the same cell density (5 × 10^5 cells ml^−1). At 24 hour intervals, cell density measurements were performed using a hem cytometer. Test concentrations were determined by an initial dose finding experiment and compounds were tested at 0.2, 0.5 and 1 times a fatal dose. This was in the region of the IC50 for both compounds.

The test system of data set [5] is CID1 poly (U) polymerase. Put plainly: biochemical. To be noted: RET1 over CID1, calculated from IC50 values. Further details: species or system Schizosaccharomyces pombe. On the procedure: (§1) Poly (U) polymerase from Schizosaccharomyces pombe, was obtained from NEB (M0337S). […]
(§2) Duplicate reactions were set up with each containing, 0.2 units of Cid1 enzyme, NEB (M0337S) with UTP at final concentration of 18 µM, RNA 3 nM, and buffer 6 up to a final volume of 10 µl. The reaction was done at 37°C for 20 mins, then the enzyme heat inactivated at 65 °C for 10 mins.

Data set [6] addresses T2, CID1 poly (U) polymerase (Schizosaccharomyces pombe, UniProt O13833).
T2 construct: purchased NEB M0337S
Put plainly: biochemical. As to the method:
as §1, §2

[7] abbreviates: RET1 IC50, PPi assay 384-well follow-up, UTP 50 µM, RNA 20 nM.
[8] abbreviates: RET1 Inhibition IC50, selectivity experiment, Table 2.

Turning to `O=C(c1cc(O)c(O)c(O)c1)c1ccc(O)c(O)c1O` [Compound 2, exifone], the “Inhibition of RET1 uridylation of RNA, gel verification” value in data set [1] is recorded as “effectively inhibit”. Further, the “Gel Assay (qualitative activity in gel based assay)” value in data set [1] is listed as “Strong”. Besides, in data set [2], the “Toxicity to PC12 cells” value is listed as “not toxic”. In addition, the IC50 in data set [3] (setting [7]) is 2 µM; in data set [3] (setting [8]) it was 2 µM; in data set [6] it was 0.088 mM. For the same compound, the “Toxicity to trypanosomes in culture” value in data set [4] was “toxic to both blood and insect forms”. Further, in data set [5], the “RET1 Selectivity (fold)” value is 43 fold.

On to `O=C(Nc1ccc(S(=O)(=O)N2CCOCC2)cc1)c1cc(Cl)ccc1NS(=O)(=O)c1ccc(Cl)s1` [Compound 1, Ataciguat], for which, in data set [1], the “Inhibition of RET1 uridylation of RNA, gel verification” value is given as “effectively inhibit”. For the same compound, in data set [1], the “Gel Assay (qualitative activity in gel based assay)” value is listed as “Strong”. For the same compound, the IC50 in data set [3] (setting [7]) worked out at 70 µM; in data set [3] (setting [8]), 73 µM; in data set [6], 4.8 mM. Further, in data set [4], the “Toxicity to trypanosomes in culture” value was “toxic to both blood and insect forms”. For the same compound, the “RET1 Selectivity (fold)” value in data set [5] is listed as 66 fold.
